What was measured:
[1] = tested on: ENR+CD organoids (ISC to Paneth cell differentiation); experiment: Primary screen: basal (non-stimulated) lysozyme secretion LYZ.NS, 2.5-D 384-well ENR+CD organoid differentiation; assay type: cell-based, mouse; details: primary screen; for Z.LYZ.NS: standard z score
Excerpt: (§1) High-throughput screening.

[2] = tested on: ENR+CD organoids (ISC to Paneth cell differentiation); experiment: Primary screen: CCh-stimulated lysozyme secretion LYZ.S, 2.5-D 384-well ENR+CD organoid differentiation; assay type: cell-based, mouse; details: primary screen
Excerpt: as §1

[3] = tested on: ENR+CD organoids (ISC to Paneth cell differentiation); experiment: Secondary (validation) screen: LYZ.NS basal lysozyme secretion, 2.5-D 384-well ENR+CD organoids; assay type: cell-based, mouse; details: 6-day ENR+CD, vs ENR+CD+DMSO
Description: (§2) Drugs were tested at a narrowed dose range around each treatment's identified optimal dose from the primary screen (4× below, 2× above and below).
as §1
(§3) Secondary lysozyme secretion assay screen. Confirmatory secondary screening with primary hits was performed using the above 384-well plate method. The screen was conducted with 4-plate replicates with a base media of ENR+CD. Media was supplemented with compound at day 0 and day 3 (n=8 well replicates per dose) at four different doses: two-fold above, two-fold below, and four-fold below the optimal final dose for each respective treatment. Additionally, each plate carried a large number of ENR+DMSO or ENR+CD+DMSO (vehicle) control wells (n=100 for ATP, and n=25 for LYZ.NS and LYZ.S) for robust normalization. ATP, non-stimulated lysozyme activity and CCh-stimulated lysozyme activity was again measured and the collected data was again processed in a custom R-script, per primary screen with slight modification. Values were log10 transformed, and a plate-wise FC was calculated for each well based on the median value of ENR+CD+DMSO (vehicle) control wells to normalize plate to plate variability.

[4] = tested on: ENR+CD organoids (ISC to Paneth cell differentiation); experiment: Secondary (validation) screen: LYZ.S CCh-stimulated lysozyme secretion, 2.5-D 384-well ENR+CD organoids; assay type: cell-based, mouse; details: 6-day ENR+CD, vs ENR+CD+DMSO
Description: as §2, §1, §3

ENR+CD organoids [5] = experiment: Secondary (validation) screen: ATP (CTG) assay, 2.5-D 384-well ENR+CD organoids; assay type: cell-based, mouse; details: 6-day ENR+CD, vs ENR+CD+DMSO
Description: as §2, §1, §3

ENR+CD organoids [6] = experiment: Primary screen: ATP (CellTiter-Glo 3D, CTG) cell number/viability, 2.5-D 384-well ENR+CD organoids; details: primary screen; for Z.CTG: standard z score;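 for all read-outs here: compounds given at plating and again on day 3 over a 6-day differentiation from ENR+CV stem-cell-enriched precursors, ATP measured on day 6, plate median as control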

With `NC1(Cc2ccc(Cl)cc2)CCN(c2ncnc3[nH]ccc23)CC1` [CCT128930] the Dose.FC.LYZ.NS ([1]; dose 0.08 uM) was 0.323 log2 fold change, the Dose.FC.LYZ.NS ([1]; dose 0.40 uM) was −0.018 log2 fold change and the Dose.FC.LYZ.NS ([1]; dose 2.00 uM) was 0.073 log2 fold change. For the same compound, the Dose.FC.LYZ.NS ([1]; dose 10.00 uM) was −0.150 log2 fold change, the Z.LYZ.NS ([1]; dose 0.08 uM) was 2.811 and the Z.LYZ.NS ([1]; dose 0.40 uM) was −0.154. It also gave a Z.LYZ.NS ([1]; dose 2.00 uM) of 0.633, a Z.LYZ.NS ([1]; dose 10.00 uM) of −1.307 and a Dose.FC.LYZ.S ([2]; dose 0.08 uM) of 0.266 log2 fold change. The Dose.FC.LYZ.S ([2]; dose 0.40 uM) was −0.007 log2 fold change, the Dose.FC.LYZ.S ([2]; dose 2.00 uM) was 0.053 log2 fold change and the Dose.FC.LYZ.S ([2]; dose 10.00 uM) was −0.201 log2 fold change. It also gave a Dose.FC.LYZ.NS ([3]; 0.02 uM) of −0.241 log2 fold change, a Z.LYZ.NS ([3]; 0.02 uM) of −1.927 and a repSSMD.LYZ.NS ([3]; 0.02 uM) of −2.551. It also gave a Dose.FC.LYZ.NS ([3]; 0.04 uM) of −0.020 log2 fold change, a Z.LYZ.NS ([3]; 0.04 uM) of −0.164 and a repSSMD.LYZ.NS ([3]; 0.04 uM) of −0.204. The Dose.FC.LYZ.NS ([3]; 0.08 uM) was 0.031 log2 fold change, the Z.LYZ.NS ([3]; 0.08 uM) was 0.248 and the repSSMD.LYZ.NS ([3]; 0.08 uM) was 0.366. For the same compound, the Dose.FC.LYZ.NS ([3]; […]) was −0.160 log2 fold change, the Dose.FC.LYZ.S ([4]; 0.02 uM) was −0.319 log2 fold change and the Z.LYZ.S ([4]; 0.02 uM) was −2.445. For the same compound, the repSSMD.LYZ.S ([4]; 0.02 uM) was −3.825, the Dose.FC.LYZ.S ([4]; 0.04 uM) was −0.014 log2 fold change and the Z.LYZ.S ([4]; 0.04 uM) was −0.108. The repSSMD.LYZ.S ([4]; 0.04 uM) was −0.157, the Dose.FC.LYZ.S ([4]; 0.08 uM) was 0.005 log2 fold change and the Z.LYZ.S ([4]; 0.08 uM) was 0.041. It also gave a repSSMD.LYZ.S ([4]; 0.08 uM) of 0.069, a Dose.FC.LYZ.S ([4]; […]) of −0.217 log2 fold change and a Dose.FC.CTG (ENR+CD organoids [5]; 0.02 uM) of −0.117 log2 fold change. It also gave a Z.CTG (ENR+CD organoids [5]; 0.02 uM) of −1.054, a repSSMD.CTG (ENR+CD organoids [5]; 0.02 uM) of −0.787 and a Dose.FC.CTG (ENR+CD organoids [5]; 0.04 uM) of 0.122 log2 fold change. The Z.CTG (ENR+CD organoids [5]; 0.04 uM) was 1.101, the repSSMD.CTG (ENR+CD organoids [5]; 0.04 uM) was 0.922 and the Dose.FC.CTG (ENR+CD organoids [5]; 0.08 uM) was 0.166 log2 fold change. For the same compound, the Z.CTG (ENR+CD organoids [5]; 0.08 uM) was 1.494, the repSSMD.CTG (ENR+CD organoids [5]; 0.08 uM) was 1.047 and the Dose.FC.CTG (ENR+CD organoids [5]; […]) was −0.088 log2 fold change. The Dose.FC.CTG (ENR+CD organoids [6]; dose 0.08 uM) was 0.095 log2 fold change, the Dose.FC.CTG (ENR+CD organoids [6]; dose 0.40 uM) was −0.025 log2 fold change and the Dose.FC.CTG (ENR+CD organoids [6]; dose 2.00 uM) was 0.127 log2 fold change. It also gave a Dose.FC.CTG (ENR+CD organoids [6]; dose 10.00 uM) of −0.175 log2 fold change, a Z.CTG (ENR+CD organoids [6]; dose 0.08 uM) of 0.228 and a Z.CTG (ENR+CD organoids [6]; dose 0.40 uM) of −0.060. For the same compound, the Z.CTG (ENR+CD organoids [6]; dose 2.00 uM) was 0.304 and the Z.CTG (ENR+CD organoids [6]; dose 10.00 uM) was −0.418.
For `CCOc1ccc(Cc2cc([C@@H]3O[C@H](CO)[C@@H](O)[C@H](O)[C@H]3O)ccc2Cl)cc1` [Dapagliflozin, reference compound], the Dose.FC.LYZ.NS ([1]; dose 0.08 uM) was 0.170 log2 fold change, the Dose.FC.LYZ.NS ([1]; dose 0.40 uM) was 0.097 log2 fold change and the Dose.FC.LYZ.NS ([1]; dose 2.00 uM) was 0.159 log2 fold change. The Dose.FC.LYZ.NS ([1]; dose 10.00 uM) was 0.136 log2 fold change, the Z.LYZ.NS ([1]; dose 0.08 uM) was 1.481 and the Z.LYZ.NS ([1]; dose 0.40 uM) was 0.842. It also gave a Z.LYZ.NS ([1]; dose 2.00 uM) of 1.386, a Z.LYZ.NS ([1]; dose 10.00 uM) of 1.182 and a Dose.FC.LYZ.S ([2]; dose 0.08 uM) of 0.294 log2 fold change. The Dose.FC.LYZ.S ([2]; dose 0.40 uM) was 0.135 log2 fold change, the Dose.FC.LYZ.S ([2]; dose 2.00 uM) was 0.166 log2 fold change and the Dose.FC.LYZ.S ([2]; dose 10.00 uM) was 0.145 log2 fold change. The Dose.FC.LYZ.NS ([3]; 0.02 uM) was 0.022 log2 fold change, the Dose.FC.LYZ.NS ([3]; 0.04 uM) was 0.150 log2 fold change and the Dose.FC.LYZ.NS ([3]; 0.08 uM) was 0.058 log2 fold change. For the same compound, the Dose.FC.LYZ.NS ([3]; […]) was −0.060 log2 fold change, the Dose.FC.LYZ.S ([4]; 0.02 uM) was −0.019 log2 fold change and the Dose.FC.LYZ.S ([4]; 0.04 uM) was 0.069 log2 fold change. The Dose.FC.LYZ.S ([4]; 0.08 uM) was 0.069 log2 fold change, the Dose.FC.LYZ.S ([4]; […]) was −0.082 log2 fold change and the Dose.FC.CTG (ENR+CD organoids [5]; 0.02 uM) was 0.085 log2 fold change. The Dose.FC.CTG (ENR+CD organoids [5]; 0.04 uM) was 0.174 log2 fold change, the Dose.FC.CTG (ENR+CD organoids [5]; 0.08 uM) was 0.149 log2 fold change and the Dose.FC.CTG (ENR+CD organoids [5]; […]) was 0.035 log2 fold change. The Dose.FC.CTG (ENR+CD organoids [6]; dose 0.08 uM) was 0.410 log2 fold change, the Dose.FC.CTG (ENR+CD organoids [6]; dose 0.40 uM) was 0.254 log2 fold change and the Dose.FC.CTG (ENR+CD organoids [6]; dose 2.00 uM) was 0.293 log2 fold change. It also gave a Dose.FC.CTG (ENR+CD organoids [6]; dose 10.00 uM) of 0.301 log2 fold change.

From patent US20220323406A1, “METHODS AND COMPOSITIONS FOR DIFFERENTIATING STEM CELLS” (Massachusetts Institute of Technology, priority 2019, published 2022)
